Test results: patent US20190119282A1, “IMIDAZOPYRIDAZINES USEFUL AS INHIBITORS OF THE PAR-2 SIGNALING PATHWAY” (Vertex Pharmaceuticals Incorporated, priority 2013, published 2019)

Columns and labels:
[1] = biological target: T1, PAR2 (HT-29 cells, SLIGKV activation) (Homo sapiens, UniProt P55085); test: Ca FLIPR TETRA assay, ANTAGONIST mode, stimulation with 8 μM SLIGKV; format: cell-based; settings: HT-29 cells
T1 construct: host or cells: HT-29 cells
T1 sequence (P55085 26-397): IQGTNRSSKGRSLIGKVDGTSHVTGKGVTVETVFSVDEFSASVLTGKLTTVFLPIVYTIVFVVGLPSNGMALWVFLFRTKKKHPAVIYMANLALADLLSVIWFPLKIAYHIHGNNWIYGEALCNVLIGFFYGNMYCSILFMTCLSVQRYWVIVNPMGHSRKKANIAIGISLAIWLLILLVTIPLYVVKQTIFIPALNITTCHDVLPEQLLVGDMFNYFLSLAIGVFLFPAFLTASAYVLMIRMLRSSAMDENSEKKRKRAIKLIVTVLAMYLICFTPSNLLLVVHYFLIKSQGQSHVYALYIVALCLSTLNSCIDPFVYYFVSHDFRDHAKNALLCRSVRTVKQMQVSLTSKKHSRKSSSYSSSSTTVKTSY
How it was run: (§1)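 Intracellular calcium is measured by fluorescence in HT-29 cells loaded with calcium 5 reagent. Compounds sit on the cells 30 min at room temperature before challenge with trypsin (3.1 U/mL) or SLIGKV (8 μM) for PAR2, or with thrombin (1 U/mL) or UTP (0.6 μM) as counter-stimuli.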

[2] = tested on: UTP-stimulated Ca2+ response in HT-29 cells; test: Ca FLIPR TETRA assay, ANTAGONIST mode, stimulation with 0.6 μM UTP; format: cell-based, human; settings: Homo sapiens, HT-29 cells
How it was run: as §1

[3] = biological target: T2, PAR2 (HT-29 cells, trypsin activation) (Homo sapiens, UniProt P55085); test: Ca FLIPR TETRA assay, ANTAGONIST mode, stimulation with 3.1 U/mL trypsin; format: cell-based; settings: HT-29 cells
T2 construct: host or cells: HT-29 cells
T2 sequence (P55085 26-397): T1 sequence (P55085 26-397)
How it was run: as §1

[4] = tested on: Thrombin-stimulated Ca2+ response in HT-29 cells; test: Ca FLIPR TETRA assay, ANTAGONIST mode, stimulation with 1 U/mL Thrombin; format: cell-based, human; settings: Homo sapiens, HT-29 cells
How it was run: as §1

[5] = antagonist mode, stimulation with 8 μM SLIGKV
[6] = antagonist mode, stimulation with 0.6 μM UTP
[7] = antagonist mode, stimulation with 3.1 U/mL trypsin
[8] = antagonist mode, stimulation with 1 U/mL Thrombin
[9] = stimulation with 3.1 U/mL trypsin
[10] = stimulation with 1 U/mL Thrombin

IC50 [1, 5]	IC50 [2, 6]	IC50 [3, 7]	IC50 [4, 8]	IC50 ([1]; stimulation with 8 μM SLIGKV)	IC50 ([2]; stimulation with 0.6 μM UTP)	IC50 [3, 9]	IC50 [4, 10]	Structure (SMILES)	also measured
6.1 nM	> 1000 nM	12.3 nM	> 1000 nM	–	–	–	–	Cc1ccc(-c2cc(C(C)C)c3nc(C(=O)N4CCN(C(=O)c5ccncn5)CC4(C)C)cn3n2)cc1 [Compound I-256]	–
–	–	–	–	63 nM	> 50000 nM	160 nM	> 50000 nM	CC(C)c1cc(-c2ccc(F)cc2)nn2cc(C(=O)N3CCN(C(=O)C(C)(C)NC(=O)OCc4ccccc4)[C@@H](C)C3)nc12 [Compound I-151]	–
–	–	–	–	2 nM	12000 nM	7 nM	15000 nM	CCc1cc(-c2ccc(F)cc2)nn2cc(C(=O)N3CCN(C(=O)[C@H](O)CC(C)(C)C)[C@@H](C)C3)nc12 [Compound I-104]	–
3.3 nM	> 1000 nM	4.6 nM	> 1000 nM	–	–	–	–	CC(C)c1cc(-c2ccc(C(F)(F)F)cc2)nn2cc(C(=O)N3CCN(C(=O)c4nc[nH]n4)CC3(C)C)nc12 [Compound I-279]	–
0.2 nM	11000 nM	0.2 nM	8840 nM	–	–	–	–	CC(C)(C)c1cc(-c2ccc(Cl)c(F)c2)nn2cc(C(=O)N3CCN(C(=O)[C@H]4C[C@@](C)(O)C4)CC3(C)C)nc12 [Compound I-469]	–
–	–	–	–	10 nM	5800 nM	11 nM	10000 nM	CC(C)c1cc(-c2ccc(F)cc2)nn2cc(C(=O)N3CCN(C)C(=O)C3(C)C)nc12 [Compound I-181]	–
92 nM	> 1000 nM	185 nM	> 1000 nM	–	–	–	–	CC(C)c1cc(-c2ccccc2)nn2cc(C(=O)N3CCN(C(=O)C(C)(C)O)CC3(C)C)nc12 [Compound I-253]	–
625 nM	> 1000 nM	480 nM	> 1000 nM	–	–	–	–	CC(C)c1cc(-c2ccc(Cl)cc2)nn2cc(C(=O)N3CCNCC3(C)C)nc12 [Compound I-521]	–
–	–	–	–	1600 nM	43000 nM	7200 nM	> 50000 nM	CNC(=O)[C@@H]1CCN(C(=O)c2cn3nc(-c4ccc(F)cc4)cc(C(F)(F)F)c3n2)C[C@@H]1C [Compound I-95]	–
27.7 nM	> 1000 nM	26.5 nM	> 1000 nM	–	–	–	–	CC(C)c1cc(-c2ccc(C(F)F)cc2)nn2cc(C(=O)N3CCNC(=O)C3(C)C)nc12 [Compound I-300]	–
1.5 nM	> 1000 nM	1.7 nM	> 1000 nM	–	–	–	–	Cc1ccc(-c2cc(C(C)(C)C)c3nc(C(=O)N4CCN(c5cn[nH]c5)C(=O)C4(C)C)cn3n2)cc1 [Compound I-364]	–
–	–	–	–	3100 nM	8100 nM	3600 nM	6700 nM	O=C(c1cn2nc(-c3ccc(F)cc3)cc(C(F)(F)F)c2n1)N1CCCCC1c1ccncc1 (stereo not shown) [Compound I-67]	–
–	–	–	–	37 nM	11000 nM	280 nM	11000 nM	C[C@H]1CN(C(=O)c2cn3nc(-c4ccc(F)cc4)cc(C(F)(F)F)c3n2)CCN1C(=O)[C@H](N)CC1CCCCC1 [Compound I-16, (2R)-2-amino-3-cyclohexyl-1-[(2S)-4-[6-(4-fluorophenyl)-8-(trifluoromethyl)imidazo[1,2-b]pyridazine-2-carbonyl]-2-methyl-piperazin-1-yl]propan-1-one]	–
–	–	–	–	40 nM	> 5000 nM	95 nM	> 5000 nM	C[C@H]1CN(C(=O)c2cn3nc(-c4ccc(F)cc4)cc(C(F)(F)F)c3n2)CCN1C(=O)OCc1ccccc1 [Compound I-46]	–
–	–	–	–	830 nM	> 50000 nM	860 nM	> 50000 nM	C[C@H](O)C(=O)N1CCN(C(=O)c2cn3nc(-c4ccc(F)cc4)cc(C(F)(F)F)c3n2)C(C)(C)C1 [Compound I-39, (2S)-1-[4-[6-(4-Fluorophenyl)-8-(trifluoromethyl)imidazo[1,2-b]pyridazine-2-carbonyl]-3,3-dimethyl-piperazin-1-yl]-2-hydroxy-propan-1-one]	–
64.5 nM	> 1000 nM	104 nM	> 1000 nM	–	–	–	–	CC1(C)CN(C(=O)c2ccncn2)CCN1C(=O)c1cn2nc(-c3ccc(F)cc3)cc(C(F)(F)F)c2n1 [Compound I-268]	–
6.6 nM	> 1000 nM	9.4 nM	> 1000 nM	–	–	–	–	CC(C)c1cc(-c2ccc(C(F)F)cc2)nn2cc(C(=O)N3CCN(C(=O)c4ccn[nH]4)CC3(C)C)nc12 [Compound I-293]	–

IC50 [1, 5]	IC50 [2, 6]	IC50 [3, 7]	IC50 [4, 8]	IC50 ([1]; stimulation with 8 μM SLIGKV)	IC50 ([2]; stimulation with 0.6 μM UTP)	IC50 [3, 9]	IC50 [4, 10]	Structure (SMILES)	also measured
5 nM	> 1000 nM	6.8 nM	> 1000 nM	–	–	–	–	CC(CO)N1CCN(C(=O)c2cn3nc(-c4ccc(F)cc4)cc(C(C)(C)C)c3n2)C(C)(C)C1=O (stereo not shown) [Compound I-233]	–
7.7 nM	> 1000 nM	10.4 nM	> 1000 nM	–	–	–	–	CC(C)c1cc(-c2ccc(C(F)(F)F)cc2)nn2cc(C(=O)N3CCN(C(=O)c4ncccn4)CC3(C)C)nc12 [Compound I-370]	–
12 nM	> 1000 nM	23 nM	> 1000 nM	–	–	–	–	CC(C)c1cc(-c2ccc(F)c(Cl)c2)nn2cc(C(=O)N3CCN(C(=O)[C@H]4C[C@H](O)C4)CC3(C)C)nc12 [Compound I-505]	–
–	–	–	–	110 nM	18000 nM	1500 nM	19000 nM	CC(C)c1cc(-c2ccc(F)cc2)nn2cc(C(=O)N3CCN(C(=O)[C@@H](O)C(C)C)[C@@H](C)C3)nc12 [Compound I-110]	–
720 nM	> 1000 nM	720 nM	> 1000 nM	–	–	–	–	Cc1n[nH]c(C(=O)N2CCN(C(=O)c3cn4nc(-c5ccc(F)cc5)cc(C(C)C)c4n3)CC2)n1 [Compound I-552]	–
2.6 nM	> 1000 nM	4.2 nM	> 1000 nM	–	–	–	–	Cc1nc(N2CCN(C(=O)c3cn4nc(-c5ccc(F)cc5)cc(C(C)(C)C)c4n3)C(C)(C)C2=O)c[nH]1 [Compound I-367]	–
–	–	–	–	7300 nM	36000 nM	17000 nM	42000 nM	Cc1cc(-c2ccc(F)cc2)nn2cc(C(=O)N3CCN(C(=O)C4(O)CCC4)[C@@H](C)C3)nc12 [Compound I-159]	–
–	–	–	–	280 nM	3100 nM	1000 nM	3600 nM	C[C@H]1CN(C(=O)c2cn3nc(-c4ccc(F)cc4)cc(C(F)(F)F)c3n2)CCN1C(=O)OC(C)(C)C [Compound I-1, tert-Butyl (2S)-4-[6-(4-fluorophenyl)-8-(trifluoromethyl)imidazo[1,2-b]pyridazine-2-carbonyl]-2-methyl-piperazine-1-carboxylate]	–
0.6 nM	> 1000 nM	0.9 nM	> 1000 nM	–	–	–	–	CC(C)(C)c1cc(-c2ccc(Cl)c(F)c2)nn2cc(C(=O)N3CCN(C(=O)c4ccccn4)CC3(C)C)nc12 [Compound I-455]	–
–	–	–	–	–	–	–	–	CC(C)(C)c1cc(-c2ccc(F)cc2)nn2cc(C(=O)N3CCN(C(=O)C45CC(C(=O)O)(C4)C5)CC3(C)C)nc12 [Compound I-559]	IC50 ([1]; antagonist mode, 8 μM SLIGKV): 20 nM; IC50 ([2]; antagonist mode, 0.6 μM UTP): > 1000 nM; IC50 ([3]; antagonist mode, 3.1 U/mL trypsin): 51.5 nM; IC50 ([4]; antagonist mode, 1 U/mL Thrombin): > 1000 nM
4.1 nM	11100 nM	5 nM	21500 nM	–	–	–	–	CC(C)c1cc(-c2ccc(F)c(Cl)c2)nn2cc(C(=O)N3CCN(C(=O)[C@H]4CC[C@@H](C(=O)O)CC4)CC3(C)C)nc12 [Compound I-495]	–
21.2 nM	> 1000 nM	26.8 nM	≥ 1000 nM	–	–	–	–	C[C@@H]1C[C@H](c2cc(-c3ccc(F)cc3)nn3cc(C(=O)N4CCN(C(=O)c5ccn[nH]5)CC4(C)C)nc23)C[C@H](C)O1 [Compound I-214]	–
108 nM	> 1000 nM	190 nM	> 1000 nM	–	–	–	–	Cc1cccc(-c2cc(C(C)C)c3nc(C(=O)N4CCN(C(=O)C(C)(C)O)CC4(C)C)cn3n2)c1 [Compound I-216]	–
–	–	–	–	200 nM	72000 nM	330 nM	140000 nM	CCc1cc(-c2ccc(F)cc2)nn2cc(C(=O)N3CCN(C(=O)C(C)(C)O)CC3(C)C)nc12 [Compound I-161]	–
6.5 nM	> 1000 nM	8.1 nM	> 1000 nM	–	–	–	–	Cc1ccc(-c2cc(C(C)C)c3nc(C(=O)N4CCN(C(=O)c5ncccn5)CC4(C)C)cn3n2)cc1F [Compound I-373]	–
5.4 nM	> 1000 nM	7.3 nM	> 1000 nM	–	–	–	–	Cc1nc(N2CCN(C(=O)c3cn4nc(-c5ccc(C)c(F)c5)cc(C(C)(C)C)c4n3)C(C)(C)C2=O)c[nH]1 [Compound I-369]	–
575 nM	> 50000 nM	8950 nM	> 50000 nM	–	–	–	–	CN(C)C(=O)C(C)(C)c1cc(-c2ccc(F)cc2)nn2cc(C(=O)N3CCNC(=O)C3(C)C)nc12 [Compound I-192]	–
